Experimental data: the CheMixHub ionic liquid set

Assay: xn = mol fraction of the nth substance listed

CC[n+]1ccn(C)c1.O=S(=O)([N-]S(=O)(=O)C(F)(F)F)C(F)(F)F + CCCCCCCCCCCC[n+]1ccn(C)c1.O=S(=O)([N-]S(=O)(=O)C(F)(F)F)C(F)(F)F
100 kPa, x2 = 0
Conditions	viscosity [mPa·s]
293 K	36
313 K	18

CC(=O)[O-].CCCCC[N+](CCCCC)(CCCCC)CCCCC + CCCCCCCCCCCC[N+](C)(C)C.[Br-] + O
viscosity [mPa·s], 100 kPa
Conditions	x2 = 5.424e-05, x1 = 0.0001802	x2 = 0.0001085, x1 = 0.0001801	x2 = 0.0001627, x1 = 0.0001801	x2 = 0.0002169, x1 = 0.0001801	x2 = 0.0002711, x1 = 0.0001801	x2 = 0.0003254, x1 = 0.0001801	x2 = 0.0003796, x1 = 0.0001801	x2 = 0.0004338, x1 = 0.0001801	x2 = 0.000488, x1 = 0.0001801	x2 = 0.0005421, x1 = 0.0001801
293.15 K	1.029	1.031	1.033	1.034	1.034	1.035	1.035	1.036	1.036	1.036
298.15 K	0.921	0.924	0.928	0.928	0.929	0.929	0.93	0.93	0.931	0.931
303.15 K	0.811	0.813	0.816	0.819	0.822	0.825	0.825	0.828	0.829	0.83
308.15 K	0.728	0.731	0.731	0.733	0.734	0.737	0.741	0.745	0.746	0.749
313.15 K	0.659	0.661	0.664	0.666	0.667	0.669	0.669	0.67	0.671	0.671
318.15 K	0.609	0.609	0.611	0.612	0.613	0.615	0.615	0.619	0.62	0.621

ClCCl + CCCC[n+]1ccn(C)c1.O=S(=O)([N-]S(=O)(=O)C(F)(F)F)C(F)(F)F
298 K, 101 kPa
Conditions	electrical conductivity [S/m]
x1 = 0.8744	1.36
x1 = 0.9287	0.98
x1 = 0.9459	0.797

CC[n+]1ccn(C)c1.O=S(=O)([N-]S(=O)(=O)C(F)(F)F)C(F)(F)F + F[P-](F)(F)(F)(F)F.[Li+]
101 kPa, x1 = 1
Conditions	electrical conductivity [S/m]
288.15 K	0.611
298.15 K	0.883
333.15 K	2.18

CC[n+]1ccn(C)c1.O=S(=O)([N-]S(=O)(=O)C(F)(F)F)C(F)(F)F + CCOC(C)=O
100 kPa
Conditions	viscosity [mPa·s]
303.15 K, x2 = 0.2977	12.85
303.15 K, x2 = 0.3962	9.43
303.15 K, x2 = 0.5961	4.75
303.15 K, x2 = 0.7974	1.97
303.15 K, x2 = 0.8979	0.88
308.15 K, x2 = 0	23.29
308.15 K, x2 = 0.2977	11.24
313.15 K, x2 = 0.3962	7.36
313.15 K, x2 = 0.5051	5.15
318.15 K, x2 = 0.1858	11.49
318.15 K, x2 = 0.3962	6.49
318.15 K, x2 = 0.5051	4.36
318.15 K, x2 = 0.8979	0.73
323.15 K, x2 = 0.6909	2.05

O=C([O-])C1=NN(c2ccc(S(=O)(=O)[O-])cc2)C(=O)C1N=Nc1ccc(S(=O)(=O)[O-])cc1.[Na+].[Na+].[Na+] (configuration not stated) + CCCC[N+](CCCC)(CCCC)Cc1ccccc1.[Cl-] + O
electrical conductivity [S/m], 101.3 kPa, frequency 0.001 MHz
Conditions	298.15 K	308.15 K	318.15 K
x1 = 0.0001802, x2 = 1.802e-05	0.11	0.131	0.158
x1 = 0.0001803, x2 = 5.405e-05	0.119	0.142	0.182
x1 = 0.0001804, x2 = 9.008e-05	0.151	0.168	0.196
x1 = 0.0004504, x2 = 1.801e-05	0.176	0.226	0.28
x1 = 0.0004507, x2 = 5.403e-05	0.201	0.248	0.328
x1 = 0.000451, x2 = 9.005e-05	0.263	0.301	0.353
x1 = 0.0007205, x2 = 1.801e-05	0.245	0.299	0.384
x1 = 0.0007209, x2 = 5.402e-05	0.269	0.342	0.452
x1 = 0.0007213, x2 = 9.003e-05	0.369	0.419	0.478
x1 = 0.0009904, x2 = 1.8e-05	0.319	0.38	0.493
x1 = 0.000991, x2 = 5.4e-05	0.353	0.438	0.577
x1 = 0.0009916, x2 = 9e-05	0.469	0.524	0.603
x1 = 0.00126, x2 = 1.8e-05	0.398	0.476	0.609
x1 = 0.001261, x2 = 5.399e-05	0.435	0.546	0.716
x1 = 0.001262, x2 = 8.998e-05	0.582	0.654	0.763
x1 = 0.00153, x2 = 1.799e-05	0.472	0.571	0.735
x1 = 0.001531, x2 = 5.397e-05	0.511	0.651	0.852
x1 = 0.001532, x2 = 8.995e-05	0.702	0.78	0.902

viscosity [mPa·s], 101.3 kPa
Conditions	298.15 K	308.15 K	318.15 K
x1 = 0.0001802, x2 = 1.802e-05	0.933	0.799	0.663
x1 = 0.0001803, x2 = 5.405e-05	0.951	0.818	0.68
x1 = 0.0001804, x2 = 9.008e-05	0.971	0.836	0.699
x1 = 0.0004504, x2 = 1.801e-05	0.956	0.818	0.68
x1 = 0.0004507, x2 = 5.403e-05	0.975	0.839	0.698
x1 = 0.000451, x2 = 9.005e-05	0.996	0.858	0.719
x1 = 0.0007205, x2 = 1.801e-05	0.975	0.836	0.695
x1 = 0.0007209, x2 = 5.402e-05	0.995	0.858	0.715
x1 = 0.0007213, x2 = 9.003e-05	1.019	0.878	0.738
x1 = 0.0009904, x2 = 1.8e-05	0.994	0.853	0.711
x1 = 0.000991, x2 = 5.4e-05	1.015	0.877	0.733
x1 = 0.0009916, x2 = 9e-05	1.039	0.897	0.756
x1 = 0.00126, x2 = 1.8e-05	1.011	0.869	0.725
x1 = 0.001261, x2 = 5.399e-05	1.034	0.895	0.749
x1 = 0.001262, x2 = 8.998e-05	1.06	0.917	0.774
x1 = 0.00153, x2 = 1.799e-05	1.028	0.884	0.738
x1 = 0.001531, x2 = 5.397e-05	1.052	0.913	0.764
x1 = 0.001532, x2 = 8.995e-05	1.081	0.938	0.792

CC(O)C(=O)[O-].CCC[N+]1(C)CCCC1 + CC#N
298 K, 101 kPa
Conditions	electrical conductivity [S/m]
x2 = 0.724	2.67
x2 = 0.749	2.89
x2 = 0.801	3.19
x2 = 0.825	3.33
x2 = 0.849	3.54
x2 = 0.873	3.56
x2 = 0.898	3.5
x2 = 0.91	3.5
x2 = 0.921	3.37
x2 = 0.929	3.24

CO + CCCCCCCCn1cc[n+](C)c1.[Cl-]
Conditions	viscosity [mPa·s]
313.15 K, 101 kPa, x1 = 1	0.444

CC[n+]1ccn(C)c1.F[B-](F)(F)F + CCCCCC[n+]1ccn(C)c1.F[B-](F)(F)F
101 kPa, x1 = 1
Conditions	viscosity [mPa·s]
299.15 K	34.52
308.15 K	25.54

CO + CC[n+]1ccn(C)c1.F[B-](F)(F)F
101 kPa, x2 = 0
Conditions	viscosity [mPa·s]
303.15 K	0.504
313.15 K	0.442
323.15 K	0.39
333.15 K	0.344
